Measurements: ChEMBL document CHEMBL1909294, “Translating clinical findings into knowledge in drug safety evaluation--drug induced liver injury prediction system (DILIps)” (PLoS Comput Biol, 2011)

Legend:
Hepatotoxicity [1] = test system: Hepatotoxicity;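 for HepSE bilirubinemia: bilirubinemia hepatic side effect score drawn from the DILIps training data, a prediction system for drug-induced liver injury; call rule not given here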;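 for HepSE cholecystitis: Cholecystitis-related hepatic side effect score drawn from the DILIps (drug-induced liver injury prediction) training data set; call rule not given here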;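 for HepSE cholelithiasis: hepatic side effect score for cholelithiasis, drawn from the DILIps training data for predicting drug-induced liver injury; call rule not given here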;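 for HepSE cirrhosis: cirrhosis hepatic side effect score taken from the DILIps (drug-induced liver injury prediction) training set; call rule not given here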;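 for HepSE elevated liver function tests: hepatic side effect score for raised liver function tests, as recorded in the DILIps training set used for predicting drug-induced liver injury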; for HepSE hepatic failure: call rule not given here;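 for HepSE hepatomegaly: hepatic side effect score for hepatomegaly, taken from the training set of the DILIps drug-induced liver injury prediction system; call rule not given here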
Hepatotoxicity [2] = test system: Hepatotoxicity; remark: listed apart in the source;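 for HepSE bilirubinemia: bilirubinemia hepatic side effect score drawn from the DILIps training data, a prediction system for drug-induced liver injury; call rule not given here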;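 for HepSE cholecystitis: Cholecystitis-related hepatic side effect score drawn from the DILIps (drug-induced liver injury prediction) training data set; call rule not given here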;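 for HepSE cholelithiasis: hepatic side effect score for cholelithiasis, drawn from the DILIps training data for predicting drug-induced liver injury; call rule not given here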;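 for HepSE cirrhosis: cirrhosis hepatic side effect score taken from the DILIps (drug-induced liver injury prediction) training set; call rule not given here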;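 for HepSE elevated liver function tests: hepatic side effect score for raised liver function tests, as recorded in the DILIps training set used for predicting drug-induced liver injury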; for HepSE hepatic failure: call rule not given here
Hepatotoxicity [3] = test system: Hepatotoxicity; remark: listed apart in the source;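 for HepSE bilirubinemia: bilirubinemia hepatic side effect score drawn from the DILIps training data, a prediction system for drug-induced liver injury; call rule not given here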;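 for HepSE cholecystitis: Cholecystitis-related hepatic side effect score drawn from the DILIps (drug-induced liver injury prediction) training data set; call rule not given here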;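 for HepSE cholelithiasis: hepatic side effect score for cholelithiasis, drawn from the DILIps training data for predicting drug-induced liver injury; call rule not given here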;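 for HepSE cirrhosis: cirrhosis hepatic side effect score taken from the DILIps (drug-induced liver injury prediction) training set; call rule not given here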;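 for HepSE elevated liver function tests: hepatic side effect score for raised liver function tests, as recorded in the DILIps training set used for predicting drug-induced liver injury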; for HepSE hepatic failure: call rule not given here
Hepatotoxicity [4] = test system: Hepatotoxicity; remark: listed apart in the source;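 for HepSE bilirubinemia: bilirubinemia hepatic side effect score drawn from the DILIps training data, a prediction system for drug-induced liver injury; call rule not given here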;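 for HepSE cholecystitis: Cholecystitis-related hepatic side effect score drawn from the DILIps (drug-induced liver injury prediction) training data set; call rule not given here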;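 for HepSE cholelithiasis: hepatic side effect score for cholelithiasis, drawn from the DILIps training data for predicting drug-induced liver injury; call rule not given here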;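 for HepSE cirrhosis: cirrhosis hepatic side effect score taken from the DILIps (drug-induced liver injury prediction) training set; call rule not given here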;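 for HepSE elevated liver function tests: hepatic side effect score for raised liver function tests, as recorded in the DILIps training set used for predicting drug-induced liver injury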; for HepSE hepatic failure: call rule not given here
Hepatotoxicity [5] = test system: Hepatotoxicity; remark: listed apart in the source; for HepSE hepatic failure: call rule not given here
Hepatotoxicity [6] = test system: Hepatotoxicity; remark: listed apart in the source; for HepSE hepatic failure: call rule not given here
Hepatotoxicity [7] = test system: Hepatotoxicity; remark: listed apart in the source
Hepatotoxicity [8] = test system: Hepatotoxicity; remark: listed apart in the source
Hepatotoxicity [9] = test system: Hepatotoxicity; remark: listed apart in the source
Hepatotoxicity [10] = test system: Hepatotoxicity; remark: listed apart in the source
Hepatotoxicity [11] = test system: Hepatotoxicity; remark: listed apart in the source
Hepatotoxicity [12] = test system: Hepatotoxicity; remark: listed apart in the source
Hepatotoxicity [13] = test system: Hepatotoxicity; remark: listed apart in the source
Hepatotoxicity [14] = test system: Hepatotoxicity; remark: listed apart in the source

Compound | HepSE_bilirubinemia (Hepatotoxicity [1]) | HepSE_cholecystitis (Hepatotoxicity [2]) | HepSE_cholelithiasis (Hepatotoxicity [3]) | HepSE_cirrhosis (Hepatotoxicity [4]) | HepSE_elevated liver function tests (Hepatotoxicity [5]) | HepSE_hepatic failure (Hepatotoxicity [6]) | HepSE_hepatic necrosis (Hepatotoxicity [7]) | HepSE_hepatitis (Hepatotoxicity [8]) | HepSE_hepatomegaly (Hepatotoxicity [9]) | HepSE_jaundice (Hepatotoxicity [10]) | HepSE_liver disease (Hepatotoxicity [11]) | HepSE_liver fatty (Hepatotoxicity [12]) | HepSE_liver function tests abnormal (Hepatotoxicity [13]) | HepSE_Combined Scores (Hepatotoxicity [14])
C[C@]12CC[C@@H]3c4ccc(O)cc4C[C@@H](CCCCCCCCC[S+]([O-])CCCC(F)(F)C(F)(F)F)[C@H]3[C@@H]1CC[C@@H]2O (stereo partly drawn) [FULVESTRANT] | 0 | 0 | 0 | 0 | 0 | 0 | 0 | 0 | 0 | 0 | 0 | 0 | 0 | 0
NCC1(CC(=O)O)CCCCC1 [GABAPENTIN] | 0 | 1 | 1 | 0 | 1 | 1 | 0 | 1 | 1 | 1 | 0 | 0 | 1 | 8
O=C[C@H](O)[C@@H](O)[C@@H](O)[C@H](O)CO [GALACTOSE] | 0 | 0 | 0 | 0 | 0 | 0 | 0 | 0 | 0 | 0 | 0 | 0 | 0 | 0
COc1ccc2c3c1O[C@H]1C[C@@H](O)C=C[C@@]31CCN(C)C2 [GALANTAMINE] | 0 | 0 | 0 | 0 | 0 | 0 | 0 | 1 | 0 | 0 | 0 | 0 | 0 | 1
NCCCC(=O)O [GAMMA-AMINOBUTYRIC ACID] | 0 | 0 | 0 | 0 | 0 | 0 | 0 | 0 | 0 | 0 | 0 | 0 | 0 | 0
Nc1nc(O)c2ncn(COC(CO)CO)c2n1 [GANCICLOVIR] | 0 | 0 | 1 | 0 | 0 | 1 | 0 | 1 | 0 | 1 | 0 | 0 | 0 | 4
COc1c(N2CCNC(C)C2)c(F)cc2c(=O)c(C(=O)O)cn(C3CC3)c12 (stereo not drawn) [GATIFLOXACIN] | 0 | 0 | 0 | 0 | 0 | 0 | 0 | 1 | 0 | 0 | 0 | 0 | 0 | 1
